Data: patent publication US20260295053A1, “COMPOUNDS FOR DEGRADATION AND INHIBITION OF KRAS (G12D) PROTEIN” (Shenzhen Ionova Life Science Co., Ltd., priority 2023, published 2026)

Columns and labels:
[1] = system: AsPC-1 cells; test: AsPC-1 cell proliferation assay (CellTiter Glo); type: cell-based; conditions: 6 days
Experimental: ASPC-1 and PK-59 cellular assays ASPC-1 (ATCC cat. CRL-1682) and PK-59 (Nanjing Cobioer, Cat. No. CBP61184) were used in KRAS cellular degradation, pERK inhibition and proliferation assays. The two cell lines were maintained following vendor's instructions. For monitoring KRAS (G12D) cellular degradation and pERK biomarker inhibition, cells were seeded into a 96-well plate with 22,000 and 16,000 cells/well for assays in ASPC-1 and PK-59, respectively. Cells were incubated at 37° C. with 5% CO2 and cell density was monitored until ^~90% confluency was reached. Compounds were serially diluted at a 1:3 ratio and dispensed into each well at final concentrations ranging from […] to 1.5 nM. After incubation for 24 hours, the culture media were removed and the cells were subjected to fixation, permeabilization and blocking (Intercept blocking buffer, Li-cor). For KRAS (G12D) degradation, the cells were treated with primary antibody (KRAS G12D antibody, Cell Signaling Technologies, Cat. No. CST14429) and for β-actin (β-actin mAb, Beyotime, Cat. No. AF-5001), and followed by secondary antibodies, Anti-rabbit IgG (H+L) (DyLight™ 800 4×PEG Conjugate) or IRDye® 680RD Goat anti-Mouse IgG. For pERK inhibition assay, cells were treated with primary antibodies for pERK (Phospho-p44/42 MAPK (Erk1/2) (Thr202/Tyr204) (D13.14.4E) XP® Rabbit mAb, Cell Signaling Technologies, Cat. No. CST-4370) and β-actin (β-actin mAb, Beyotime, Cat. No. AF-5001), and followed by secondary antibodies, Anti-rabbit IgG (H+L) (DyLight™ 800 4×PEG Conjugate) or IRDye® 680RD Goat anti-Mouse IgG. Fluorescence signals were read on Odyssey CLX instrument. For cell proliferation assays, cells were seeded into a 96-well plate at 3,500 and 800 cells/well for assays in ASPC-1 and PK-59, respectively. Cells were incubated at 37° C. with 5% CO2 for overnight. Compounds were serially diluted at a 1:3 ratio and dispensed into each well at final concentrations ranging from […] to 1.5 nM. After incubation for 6 days, cell viability reagent (CellTiter Glo, Promega, Cat. No. G7573) was added to each well and luminescence was recorded on Molecular Devices Spectramax iD3 instrument. IC50, half-maximal inhibitory concentration for pERK inhibition or cell proliferation, and DC50, half-maximal degradation concentration in KRAS (G12D) cellular degradation were determined by fitting the corresponding dose response curves using GraphPad Prism software.
Wherein “A” means the value <10 nM, “B” means 10 nM<the value <100 nM, “C” means 100 nM<the value <1000 nM, and “D” means the value >1000 nM, in which, the value means the value of DC50 or IC50. NT means not tested.

[2] = molecular target: T1, KRAS (G12D) (Homo sapiens, UniProt P01116, G12D); test: KRAS (G12D) cellular degradation assay in AsPC-1 cells; type: cell-based; conditions: 24 hours, antibody fluorescence (Odyssey CLX), DC50 half-maximal degradation concentration
T1 construct: in-cell western with KRAS G12D antibody after 24 h
T1 sequence (P01116 1-188 isoform P01116-2 G12D): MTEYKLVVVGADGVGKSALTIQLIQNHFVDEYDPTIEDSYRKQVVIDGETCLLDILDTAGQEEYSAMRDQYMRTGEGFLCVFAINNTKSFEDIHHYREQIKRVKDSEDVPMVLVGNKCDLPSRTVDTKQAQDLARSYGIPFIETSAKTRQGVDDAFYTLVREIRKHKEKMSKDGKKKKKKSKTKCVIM
Method in brief: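 Proliferation IC50 comes from CellTiter Glo luminescence after 6 days' exposure of AsPC-1 (3,500 cells/well) to 1:3 dilutions from […] to 1.5 nM. KRAS G12D DC50 derives from in-cell immunofluorescence normalised to β-actin after 24 h treatment of near-confluent AsPC-1 cells over the same range.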

| SMILES | IC50 ([1]; Homo sapiens, ASPC1, 144 h) | DC50 [2] | IC50 [1] |
| --- | --- | --- | --- |
| CCn1nccc1-c1ccc([C@@H](NC(=O)[C@@H]2C[C@@H](O)CN2C(=O)[C@H](C(C)C)n2cc(-c3ccc(COc4c(-c5c(C)c(F)cc6[nH]ncc56)c(C5CC5)cc5c(N6C[C@@H]7C[C@H]6CN7)nc(OC[C@H](C)OC)nc45)cc3)nn2)C(C)O)cc1 (stereo in doubt) [Example 75, (2S,4R)-1-((2S)-2-(4-(4-(((4-((1S,4S)-2,5-diazabicyclo[2.2.1]heptan-2-yl)-6-cyclopropyl-7-(6-fluoro-5-methyl-1H-indazol-4-yl)-2-((S)-2-methoxypropoxy)quinazolin-8-yl)oxy)methyl)phenyl)-1H-1,2,3-triazol-1-yl)-3-methylbutanoyl)-N-((1R,2R)-1-(4-(1-ethyl-1H-pyrazol-5-yl)phenyl)-2-hydroxypropyl)-4-hydroxypyrrolidine-2-carboxamide] | < 10 nM | < 10 nM | – |
| CCn1nccc1-c1ccc([C@H](CO)NC(=O)[C@@H]2C[C@@H](O)CN2C(=O)[C@H](C(C)C)n2cc(-c3ccc(COc4c(-c5c(C)c(F)cc6[nH]ncc56)c(C5CC5)cc5c(N6C[C@H]7C[C@@H]6CN7)nc(OC[C@H](C)OC)nc45)cc3)nn2)cc1 (single isomer, unassigned) [Example 1A] | – | < 10 nM | < 10 nM |
| CCn1nccc1-c1ccc([C@H](CO)NC(=O)[C@@H]2C[C@@H](O)CN2C(=O)[C@H](C(C)C)n2cc(-c3ccc(COc4c(-c5c(C)c(F)cc6[nH]ncc56)c(C5CC5)cc5c(N6CCNCC[C@H]6C)nc(OC[C@H](C)OC)nc45)cc3)nn2)cc1 [Example 178, (2S,4R)-1-((2S)-2-(4-(4-(((6-cyclopropyl-7-(6-fluoro-5-methyl-1H-indazol-4-yl)-2-((S)-2-methoxypropoxy)-4-((R)-7-methyl-1,4-diazepan-1-yl)quinazolin-8-yl)oxy)methyl)phenyl)-1H-1,2,3-triazol-1-yl)-3-methylbutanoyl)-N—((R)-1-(4-(1-ethyl-1H-pyrazol-5-yl)phenyl)-2-hydroxyethyl)-4-hydroxypyrrolidine-2-carboxamide] | – | < 10 nM | < 10 nM |
| CCn1nccc1-c1ccc([C@H](CO)NC(=O)[C@@H]2C[C@@H](O)CN2C(=O)[C@H](C(C)C)n2cc(-c3ccc(COc4c(-c5c(C)c(F)cc6[nH]ncc56)c(C5CC5)cc5c(N6C[C@@H]7C[C@H]6CN7)nc(N6CCC(OC)C6)nc45)cc3)nn2)cc1 (stereo partly drawn) [Example 112, (2S,4R)-1-((2S)-2-(4-(4-(((4-((1S,4S)-2,5-diazabicyclo[2.2.1]heptan-2-yl)-6-cyclopropyl-7-(6-fluoro-5-methyl-1H-indazol-4-yl)-2-(3-methoxypyrrolidin-1-yl)quinazolin-8-yl)oxy)methyl)phenyl)-1H-1,2,3-triazol-1-yl)-3-methylbutanoyl)-N—((R)-1-(4-(1-ethyl-1H-pyrazol-5-yl)phenyl)-2-hydroxyethyl)-4-hydroxypyrrolidine-2-carboxamide] | < 10 nM | < 10 nM | – |
| CCn1nccc1-c1ccc([C@@H](NC(=O)[C@@H]2C[C@@H](O)CN2C(=O)[C@H](C(C)C)n2cc(-c3ccc(COc4c(-c5c(C)c(F)cc6[nH]ncc56)c(C5CC5)cc5c(N6C[C@@H]7C[C@H]6CN7)nc(OC6CC7(CCOC7)C6)nc45)cc3)nn2)[C@H](C)O)cc1 (stereo partly drawn) [Example 114, (2S,4R)-1-((2S)-2-(4-(4-(((2-((6-oxaspiro[3.4]octan-2-yl)oxy)-4-((1S,4S)-2,5-diazabicyclo[2.2.1]heptan-2-yl)-6-cyclopropyl-7-(6-fluoro-5-methyl-1H-indazol-4-yl)quinazolin-8-yl)oxy)methyl)phenyl)-1H-1,2,3-triazol-1-yl)-3-methylbutanoyl)-N-((1R,2S)-1-(4-(1-ethyl-1H-pyrazol-5-yl)phenyl)-2-hydroxypropyl)-4-hydroxypyrrolidine-2-carboxamide] | < 10 nM | < 10 nM | – |

The remaining lines, values ahead:

| IC50 ([1]; Homo sapiens, ASPC1, 144 h) | DC50 [2] | IC50 [1] | SMILES |
| --- | --- | --- | --- |
| < 10 nM | < 10 nM | – | CCn1nccc1-c1ccc([C@H](CO)NC(=O)[C@@H]2C[C@@H](O)CN2C(=O)[C@H](C(C)C)n2cc(-c3ccc(COc4c(-c5c(C)c(F)c(C)c6[nH]ncc56)c(C5CC5)cc5c(N6C[C@@H]7C[C@H]6CN7)nc(OC[C@H](C)OC)nc45)cc3)nn2)cc1 [Example 66, (2S,4R)-1-((2S)-2-(4-(4-(((4-((1S,4S)-2,5-diazabicyclo[2.2.1]heptan-2-yl)-6-cyclopropyl-7-(6-fluoro-5,7-dimethyl-1H-indazol-4-yl)-2-((S)-2-methoxypropoxy)quinazolin-8-yl)oxy)methyl)phenyl)-1H-1,2,3-triazol-1-yl)-3-methylbutanoyl)-N—((R)-1-(4-(1-ethyl-1H-pyrazol-5-yl)phenyl)-2-hydroxyethyl)-4-hydroxypyrrolidine-2-carboxamide] |
| – | < 10 nM | < 10 nM | CCn1nccc1-c1ccc([C@@H](NC(=O)[C@@H]2C[C@@H](O)CN2C(=O)[C@H](C(C)C)n2cc(-c3ccc(COc4c(-c5c(C)c(F)cc6[nH]ncc56)c(C5CC5)cc5c(N6C[C@@H]7C[C@H]6CN7)nc(OCC(OC)C(F)F)nc45)cc3)nn2)[C@H](C)O)cc1 (stereo partly drawn) [Example 122, (2S,4R)-1-((2S)-2-(4-(4-(((4-((1S,4S)-2,5-diazabicyclo[2.2.1]heptan-2-yl)-6-cyclopropyl-2-(3,3-difluoro-2-methoxypropoxy)-7-(6-fluoro-5-methyl-1H-indazol-4-yl)quinazolin-8-yl)oxy)methyl)phenyl)-1H-1,2,3-triazol-1-yl)-3-methylbutanoyl)-N-((1R,2S)-1-(4-(1-ethyl-1H-pyrazol-5-yl)phenyl)-2-hydroxypropyl)-4-hydroxypyrrolidine-2-carboxamide] |
| 10 to 100 nM | 10 to 100 nM | – | CCn1nccc1-c1ccc(CNC(=O)[C@@H]2C[C@@H](O)CN2C(=O)[C@H](C(C)C)n2cc(-c3ccc(COc4c(-c5c(C)c(F)cc6[nH]ncc56)c(C5CC5)cc5c(N6C[C@H]7C[C@@H]6CN7)nc(OC[C@H](C)OC)nc45)cc3)nn2)cc1 (single isomer, unassigned) [Example 7A] |
| < 10 nM | < 10 nM | – | CCn1nccc1-c1ccc([C@H](CO)NC(=O)[C@@H]2C[C@@H](O)CN2C(=O)[C@H](C(C)C)n2cc(-c3ccc(COc4c(-c5c(C)c(F)cc6[nH]ncc56)c(C5CC5)cc5c(N6C[C@@H]7C[C@H]6CN7)nc(OC6CCC(OC)CC6)nc45)cc3)nn2)cc1 (stereo partly drawn) [Example 70, (2S,4R)-1-((2S)-2-(4-(4-(((4-((1S,4S)-2,5-diazabicyclo[2.2.1]heptan-2-yl)-6-cyclopropyl-7-(6-fluoro-5-methyl-1H-indazol-4-yl)-2-((4-methoxycyclohexyl)oxy)quinazolin-8-yl)oxy)methyl)phenyl)-1H-1,2,3-triazol-1-yl)-3-methylbutanoyl)-N—((R)-1-(4-(1-ethyl-1H-pyrazol-5-yl)phenyl)-2-hydroxyethyl)-4-hydroxypyrrolidine-2-carboxamide] |
| < 10 nM | 10 to 100 nM | – | CCn1nccc1-c1ccc([C@H](CO)NC(=O)[C@@H]2C[C@@H](O)CN2C(=O)[C@H](C(C)C)n2cc(-c3ccc(COc4c(-c5c(C)c(F)cc6[nH]ncc56)c(C5CC5)cc5c(N6C[C@@H]7C[C@H]6CN7)nc(OC[C@H](C)OC)nc45)c4c3CC4)nn2)cc1 [Example 31, (2S,4R)-1-((2S)-2-(4-(5-(((4-((1S,4S)-2,5-diazabicyclo[2.2.1]heptan-2-yl)-6-cyclopropyl-7-(6-fluoro-5-methyl-1H-indazol-4-yl)-2-((S)-2-methoxypropoxy)quinazolin-8-yl)oxy)methyl)bicyclo[4.2.0]octa-1,3,5-trien-2-yl)-1H-1,2,3-triazol-1-yl)-3-methylbutanoyl)-N—((R)-1-(4-(1-ethyl-1H-pyrazol-5-yl)phenyl)-2-hydroxyethyl)-4-hydroxypyrrolidine-2-carboxamide] |
